Experimental data: patent US20190345150A1, “MICROBIOCIDAL OXADIAZOLE DERIVATIVES” (SYNGENTA PARTICIPATIONS AG, priority 2016, published 2019)

Assays:
[1] = tested on: Puccinia recondita f. Sp. Tritici; assay: Puccinia recondita f. sp. tritici / wheat / leaf disc preventative (brown rust); format: in vivo; conditions: foliar, 200 ppm in the applied formulation, wheat leaf segments cv. Kanzler, preventative (inoculated 1 day after application), compared to untreated control, read-out: disease control
Experimental: Leaf disks or leaf segments of various plant species are cut from plants grown in a greenhouse. The cut leaf disks or segments are placed in multiwell plates (24-well format) onto water agar. The leaf disks are sprayed with a test solution before (preventative) or after (curative) inoculation. Compounds to be tested are prepared as DMSO solutions (max. 10 mg/ml) which are diluted to the appropriate concentration with 0.025% Tween20 just before spraying. The inoculated leaf disks or segments are incubated under defined conditions (temperature, relative humidity, light, etc.) according to the respective test system. A single evaluation of disease level is carried out 3 to 14 days after inoculation, depending on the pathosystem. Percent disease control relative to the untreated check leaf disks or segments is then calculated. Wheat leaf segments cv. Kanzler were placed on agar in multiwell plates (24-well format) and sprayed with the formulated test compound diluted in water. The leaf disks were inoculated with a spore suspension of the fungus 1 day after application. The inoculated leaf segments were incubated at 19° C. and 75% relative humidity (rh) under a light regime of 12 hours light/12 hours darkness in a climate cabinet and the activity of a compound was assessed as percent disease control compared to untreated when an appropriate level of disease damage appears in untreated check leaf segments (7 to 9 days after application).

[2] = tested on: Puccinia recondita f. Sp. Tritici; assay: Puccinia recondita f. sp. tritici / wheat / leaf disc curative (brown rust); format: in vivo; conditions: foliar, 24 h, 200 ppm in the applied formulation, wheat leaf segments cv. Kanzler, curative (applied 1 day after inoculation), compared to untreated control, read-out: disease control
Experimental: Leaf disks or leaf segments of various plant species are cut from plants grown in a greenhouse. The cut leaf disks or segments are placed in multiwell plates (24-well format) onto water agar. The leaf disks are sprayed with a test solution before (preventative) or after (curative) inoculation. Compounds to be tested are prepared as DMSO solutions (max. 10 mg/ml) which are diluted to the appropriate concentration with 0.025% Tween20 just before spraying. The inoculated leaf disks or segments are incubated under defined conditions (temperature, relative humidity, light, etc.) according to the respective test system. A single evaluation of disease level is carried out 3 to 14 days after inoculation, depending on the pathosystem. Percent disease control relative to the untreated check leaf disks or segments is then calculated. Wheat leaf segments cv. Kanzler are placed on agar in multiwell plates (24-well format). The leaf segments are then inoculated with a spore suspension of the fungus. Plates were stored in darkness at 19° C. and 75% relative humidity. The formulated test compound diluted in water was applied 1 day after inoculation. The leaf segments were incubated at 19° C. and 75% relative humidity under a light regime of 12 hours light/12 hours darkness in a climate cabinet and the activity of a compound was assessed as percent disease control compared to untreated when an appropriate level of disease damage appears in untreated check leaf segments (6 to 8 days after application).

Phakopsora pachyrhizi = Phakopsora pachyrhizi / soybean / leaf disc preventative (Asian soybean rust); format: in vivo; conditions: foliar, 200 ppm in the applied formulation, soybean leaf disks, preventative (inoculated 1 day after application), compared to untreated control, read-out: disease control
Experimental: Leaf disks or leaf segments of various plant species are cut from plants grown in a greenhouse. The cut leaf disks or segments are placed in multiwell plates (24-well format) onto water agar. The leaf disks are sprayed with a test solution before (preventative) or after (curative) inoculation. Compounds to be tested are prepared as DMSO solutions (max. 10 mg/ml) which are diluted to the appropriate concentration with 0.025% Tween20 just before spraying. The inoculated leaf disks or segments are incubated under defined conditions (temperature, relative humidity, light, etc.) according to the respective test system. A single evaluation of disease level is carried out 3 to 14 days after inoculation, depending on the pathosystem. Percent disease control relative to the untreated check leaf disks or segments is then calculated. Soybean leaf disks are placed on water agar in multiwell plates (24-well format) and sprayed with the formulated test compound diluted in water. One day after application leaf discs are inoculated by spraying a spore suspension on the lower leaf surface. After an incubation period in a climate cabinet of 24-36 hours in darkness at 20° C. and 75% rh leaf disc are kept at 20° C. with 12 h light/day and 75% rh. The activity of a compound is assessed as percent disease control compared to untreated when an appropriate level of disease damage appears in untreated check leaf disks (12 to 14 days after application).

[3] = tested on: Glomerella laqenarium (Colletotrichum laqenarium); assay: Glomerella lagenarium liquid culture / cucumber / preventative (anthracnose); format: cell-based; conditions: 20 ppm in the applied formulation, liquid culture in PDB, growth inhibition measured photometrically 3 to 4 days after application, compared to untreated control, read-out: disease control
Experimental: Mycelia fragments or conidia suspensions of a fungus prepared either freshly from liquid cultures of the fungus or from cryogenic storage, are directly mixed into nutrient broth. DMSO solutions of the test compound (max. 10 mg/ml) are diluted with 0.025% Tween20 by a factor of 50 and 10 μl of this solution is pipetted into a microtiter plate (96-well format). The nutrient broth containing the fungal spores/mycelia fragments is then added to give an end concentration of the tested compound. The test plates are incubated in the dark at 24° C. and 96% relative humidity. The inhibition of fungal growth is determined photometrically after 2 to 7 days, depending on the pathosystem, and percent antifungal activity relative to the untreated check is calculated. Conidia of the fungus from cryogenic storage are directly mixed into nutrient broth (PDB—potato dextrose broth). After placing a (DMSO) solution of test compound into a microtiter plate (96-well format), the nutrient broth containing the fungal spores is added. The test plates are incubated at 24° C. and the inhibition of growth is measured photometrically 3 to 4 days after application.

| melting point [°C] | Compound | pest or weed control at 200 ppm [1] [%] | pest or weed control at 200 ppm [2] [%] | pest or weed control at 200 ppm (Phakopsora pachyrhizi) [%] | inhibition of growth at 20 ppm [3] [%] |
| --- | --- | --- | --- | --- | --- |
| 86.1 to 87.3 | CC(=O)n1ccc(OCc2ccc(-c3noc(C(F)(F)F)n3)cc2)n1 [Compound 1.18, 1-[3-[[4-[5-(trifluoromethyl)-1,2,4-oxadiazol-3-yl]phenyl]methoxy]pyrazol-1-yl]ethanone] | ≥ 80 | ≥ 80 | ≥ 80 | ≥ 80 |
| 137.4 to 141.8 | Cc1cc(OCc2ccc(-c3noc(C(F)(F)F)n3)cc2)n[nH]1 [Compound 1.19, 3-[4-[(5-methyl-1H-pyrazol-3-yl)oxymethyl]phenyl]-5-(trifluoromethyl)-1,2,4-oxadiazole] | ≥ 80 | ≥ 80 | ≥ 80 | ≥ 80 |
| 104 to 106 | CC(Oc1nnnn1C)c1ccc(-c2noc(C(F)(F)F)n2)cc1 (centres unmarked) [Compound 1.22, 3-[4-[1-(1-methyltetrazol-5-yl)oxyethyl]phenyl]-5-(trifluoromethyl)-1,2,4-oxadiazole] | ≥ 80 | ≥ 80 | ≥ 80 | ≥ 80 |
| 51 to 53 | C/C(=N/OCc1ccc(-c2noc(C(F)(F)F)n2)cc1)n1ccnc1 [Compound 4.2, (Z)-1-imidazol-1-yl-N-[[4-[5-(trifluoromethyl)-1,2,4-oxadiazol-3-yl]phenyl]methoxy]ethanimine] | ≥ 80 | ≥ 80 | ≥ 80 | ≥ 80 |

More lines, now with the values behind:

| Compound | melting point [°C] | pest or weed control at 200 ppm [1] [%] | pest or weed control at 200 ppm [2] [%] | pest or weed control at 200 ppm (Phakopsora pachyrhizi) [%] | inhibition of growth at 20 ppm [3] [%] |
| --- | --- | --- | --- | --- | --- |
| Fc1ccccc1OCc1ccc(-c2noc(C(F)(F)F)n2)cc1 [Compound 1.11, 3-[4-[(2-fluorophenoxy)methyl]phenyl]-5-(trifluoromethyl)-1,2,4-oxadiazole] | 108 to 110 | ≥ 80 | ≥ 80 | ≥ 80 | ≥ 80 |
| Cn1ccc(OCc2ccc(-c3noc(C(F)(F)F)n3)cc2)n1 [Compound 1.17, 3-[4-[(1-methylpyrazol-3-yl)oxymethyl]phenyl]-5-(trifluoromethyl)-1,2,4-oxadiazole] | 84.9 to 87.8 | ≥ 80 | ≥ 80 | ≥ 80 | ≥ 80 |
| CN(C)C(=O)OCc1ccc(-c2noc(C(F)(F)F)n2)cc1 [Compound 3.1, [4-[5-(trifluoromethyl)-1,2,4-oxadiazol-3-yl]phenyl]methyl N,N-dimethylcarbamate] | 95 to 97 | ≥ 80 | ≥ 80 | ≥ 80 | ≥ 80 |
